Assay results as given in patent publication US20260374739A1, “SMALL MOLECULAR WEIGHT CHEMICAL COMPOUND TO ANTAGONIZE EPH-EPHRIN TETRAMERIZATION AND INHIBIT BIDIRECTIONAL SIGNALING” (THE BOARD OF REGENTS OF THE UNIVERSITY OF TEXAS SYSTEM, priority 2022, published 2026).
Where two headings read alike, the source gives them in different places.

What was measured:
[1] = target: T1, EphrinB2-EphB2 (Homo sapiens, UniProt P29323); experiment: Octet tetramerization inhibition, immobilized human EphrinB2 binding to 50 nM soluble human EphB2
T1 construct: soluble human EphB1-His, EphB2-His, and EphB4-His ectodomains; commercially available human EphrinB1-Fc (EB1), EphrinB2-Fc (EB2), and EphrinB3-Fc (EB3) ectodomain proteins; purchased
T1 sequence (P29323 19-543 limits assumed): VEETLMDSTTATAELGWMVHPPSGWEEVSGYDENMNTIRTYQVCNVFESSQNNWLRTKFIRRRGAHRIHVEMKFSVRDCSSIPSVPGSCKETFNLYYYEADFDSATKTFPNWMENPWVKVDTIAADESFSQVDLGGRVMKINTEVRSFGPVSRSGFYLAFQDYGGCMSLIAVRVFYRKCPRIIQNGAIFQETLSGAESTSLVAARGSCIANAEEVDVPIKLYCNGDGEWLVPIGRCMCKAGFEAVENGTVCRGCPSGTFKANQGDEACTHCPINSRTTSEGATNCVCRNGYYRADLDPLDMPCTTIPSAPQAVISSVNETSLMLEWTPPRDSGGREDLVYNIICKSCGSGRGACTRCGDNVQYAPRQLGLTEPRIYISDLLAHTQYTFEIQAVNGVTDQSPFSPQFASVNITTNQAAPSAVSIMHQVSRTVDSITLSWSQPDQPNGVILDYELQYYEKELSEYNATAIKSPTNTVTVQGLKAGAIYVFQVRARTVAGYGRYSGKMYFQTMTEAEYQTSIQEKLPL

[2] = target: T2, EphrinB2-EphB1 (Homo sapiens, UniProt P54762); experiment: Octet 80 sec association/500 sec dissociation, immobilized human EphrinB2-Fc binding to soluble human EphB1-His; settings: for inhibition at 3.2 µM: EphB1, 25 nM EphB1, 3.2 μM compound, A20-I as max control, 0* = less than 0, no inhibition
T2 construct: soluble human EphB1-His, EphB2-His, and EphB4-His ectodomains; commercially available human EphrinB1-Fc (EB1), EphrinB2-Fc (EB2), and EphrinB3-Fc (EB3) ectodomain proteins; purchased
T2 sequence (P54762 18-540 limits assumed): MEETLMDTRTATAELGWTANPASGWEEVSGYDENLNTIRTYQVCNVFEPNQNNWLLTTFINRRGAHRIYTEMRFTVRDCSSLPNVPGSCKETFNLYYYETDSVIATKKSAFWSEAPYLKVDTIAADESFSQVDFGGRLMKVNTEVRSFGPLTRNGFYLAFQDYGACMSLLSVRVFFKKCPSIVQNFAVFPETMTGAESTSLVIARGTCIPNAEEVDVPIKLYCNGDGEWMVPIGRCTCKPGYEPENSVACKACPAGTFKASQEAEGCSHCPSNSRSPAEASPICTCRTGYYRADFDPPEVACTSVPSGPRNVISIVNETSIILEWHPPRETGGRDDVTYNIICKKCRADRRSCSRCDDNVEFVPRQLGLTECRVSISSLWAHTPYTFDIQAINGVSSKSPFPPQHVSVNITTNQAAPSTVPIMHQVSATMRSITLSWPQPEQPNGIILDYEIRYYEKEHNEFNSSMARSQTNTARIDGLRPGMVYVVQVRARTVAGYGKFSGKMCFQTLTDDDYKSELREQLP
Protocol: (§1) In another experiment, whether certain A20 analogs might have specificity for different Eph receptors was tested. An Octet RED384 system was used to obtain biophysical ON-OFF binding data (association-dissociation) for the three different human EphrinB2-EphB1, EphrinB2-EphB2, and EphrinB2-EphB4 protein-protein interactions and to assess the effect of A20 chemicals on the binding kinetics.
(§2) FIGS. 72A-72C show three example Octet sensorgram response traces for the immobilized human EphrinB2 ectodomain protein binding to soluble forms of the human EphB1, EphB2, and EphB4 ectodomain proteins, in the absence or presence of an A20 chemical (buffer conditions are always PBSTD:PBS with 0.05% Tween-20, 1% DMSO, and +/− indicated chemical). After loading EphrinB2-Fc protein to Octet AHC biosensors, washing, and obtaining stable baseline measurements in the appropriate PBSTD (either with or without indicated chemical), the sensors are placed in its buffer that also contains the indicated soluble EphB protein for the association step (0-80″), and then returned to its buffer for the dissociation step (81″-580″). In each figure (FIGS. 72A-72C), a sensorgram run using 10 μM of the 2×HCl salt form of A20-I is compared to the no compound control run to exemplify the maximum level of reduced response signal typically obtained with a potent A20 chemical.
(§3) Because the response levels during the dissociation step plateau for the EphrinB2-EphB2 and EphrinB2-EphB1 interactions by the first 80″, AUCs were also calculated for run data encompassing the first 160″ of each experiment to account for both the 80″ association data (red asterisks) and the first 80″ of dissociation data (marked by green line and asterisks).
(§4) The selectivity of another A20 analog (a 3×HCL salt form of compound BQPB4) in comparison to previously tested compound, A20-1, was tested as described in Example 27 above.
(§5) Further to the experiments listed above, a series of dose-response experiments were conducted to determine the IC50 of a selected A20 chemical (A20-1) on the kinetics of human EphrinB2 ligand ectodomain protein binding to its cognate human EphB1, EphB2, and EphB4 receptor ectodomain proteins. FIG. 74A-74C are representative sensorgrams showing the effect of 0, 0.1, 0.2, 0.4, 0.8, 1.6, and 3.2 μM, concentrations of the 2×HCl salt of A20-I along with a 10 μM max standard (also A20-1) on three different Ephrin-EphB interactions (e.g., EphB1 in FIG. 74A, EphB2 in FIG. 74B and EphB4 in FIG. 74C). […] Additional IC50 values were determined at specific timepoints, at 75″ into the association step and at 55″ into the dissociation step (135″).
(§6) All absolute and relative IC50 values are provided in the Table 6 below, where absolute are based off the full binding sensorgram traces, and relative are based off of the max control traces.
(§7) In another experiment, the % inhibition for various A20 analog chemicals against the three different EphrinB2-EphB protein interactions was determined. Specifically, the percent inhibition for immobilized human EphrinB2-Fc binding to 25 nM soluble human EphB1-His (FIG. 76A, enlarged in FIG. 76D), EphB2-His (FIG. 76B, enlarged in FIG. 76E), and EphB4-His (FIG. 76C, enlarged in FIG. 76F) with 3511-I, 8009-9255, QTM-Br, A19, A19-NO2, and IM (all at 3.2 μM) was determined.

[3] = target: T1, EphrinB2-EphB2; experiment: Octet 80 sec association/500 sec dissociation, immobilized human EphrinB2-Fc binding to soluble human EphB2-His; settings: for inhibition at 3.2 µM: EphB2, 25 nM EphB2, 3.2 μM compound, A20-I as max control, 0* = less than 0, no inhibition
Protocol: as §1, §2, §3, §4, §5, §6, §7

[4] = target: T3, EphrinB2-EphB4 (Homo sapiens, UniProt P54760); experiment: Octet 80 sec association/500 sec dissociation, immobilized human EphrinB2-Fc binding to soluble human EphB4-His; settings: for inhibition at 3.2 µM: EphB4, 25 nM EphB4, 3.2 μM compound, A20-I as max control, 0* = less than 0, no inhibition
T3 construct: soluble human EphB1-His, EphB2-His, and EphB4-His ectodomains; commercially available human EphrinB1-Fc (EB1), EphrinB2-Fc (EB2), and EphrinB3-Fc (EB3) ectodomain proteins; purchased
T3 sequence (P54760 16-539 limits assumed): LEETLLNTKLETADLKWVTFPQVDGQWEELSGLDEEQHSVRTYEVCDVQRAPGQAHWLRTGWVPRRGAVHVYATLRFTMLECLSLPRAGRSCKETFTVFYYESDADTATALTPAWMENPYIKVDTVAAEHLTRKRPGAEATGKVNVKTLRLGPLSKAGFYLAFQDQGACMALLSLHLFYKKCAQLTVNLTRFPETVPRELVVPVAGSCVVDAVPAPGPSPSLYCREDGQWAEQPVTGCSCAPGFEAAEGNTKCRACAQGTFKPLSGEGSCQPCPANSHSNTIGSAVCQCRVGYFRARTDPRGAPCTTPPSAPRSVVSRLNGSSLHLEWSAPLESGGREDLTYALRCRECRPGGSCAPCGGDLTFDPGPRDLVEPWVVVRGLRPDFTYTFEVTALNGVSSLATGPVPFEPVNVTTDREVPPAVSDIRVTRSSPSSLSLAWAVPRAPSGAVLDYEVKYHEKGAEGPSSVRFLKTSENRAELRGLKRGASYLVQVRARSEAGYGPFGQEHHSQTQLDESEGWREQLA
Protocol: as §1, §2, §3, §4, §5, §6, §7

[5] = read-out: % Inhibition: Association + Dissociation (160 sec)
[6] = read-out: % Inhibition: Association ONLY (80 sec)

Structure (SMILES): O=S1(=O)CCN(Cc2cc(Br)c(O)c3ncccc23)CC1 [Compound 16, 4-((7-bromo-8-hydroxyquinolin-5-yl)methyl)thiomorpholine 1,1-dioxide]
- IC50 ([1]; tetramerization inhibitor IC50 (relative), association step, surmountable tetramer): ~800 nM
- inhibition at 3.2 µM [2, 5]: 48%
- inhibition at 3.2 µM [2, 6]: 33%
- inhibition of EphrinB2-EphB interactions ([3]; 3.2 μM, EphB1, EphB2 and EphB4): activity similar to A20-I max control
- inhibition at 3.2 µM [3, 5]: 74.5%
- inhibition at 3.2 µM [3, 6]: 59.5%
- inhibition at 3.2 µM [4, 5]: 37.2%
- inhibition at 3.2 µM [4, 6]: 18.1%

Structure (SMILES): COc1ccc(N2CCN(Cc3ccc(O)c4ncccc34)CC2)cc1 [Compound 72, 5-((4-(4-methoxyphenyl)piperazin-1-yl)methyl)quinolin-8-ol]
- tetramerization inhibitor activity [1]: exhibit strong IC50 values
- disruption of unsurmountable tetramer ([1]; 0.8-3.2 μM): ability to disrupt some of the unsurmountable tetramer
- IC50 ([1]; Absolute AUC/IC50, Table A, EphrinB2-EphB2): 2290 nM
- IC50 ([1]; Absolute Association IC50 (300 sec), Table A, EphrinB2-EphB2): 2510 nM
- IC50 ([1]; Absolute Dissociation IC50 (450 sec), Table A, EphrinB2-EphB2): 1510 nM
- IC50 ([1]; Relative Association IC50 (300 sec), Table A, EphrinB2-EphB2): 1200 nM
- IC50 ([1]; Relative Dissociation IC50 (450 sec), Table A, EphrinB2-EphB2): 1070 nM
- EphB1 Inhibition Percent, Inhibition of Association ONLY ([2]; at 3.2 μM and 80 seconds, immobilized human EphrinB2, 25 nM soluble human EphB1): 30.0%
- EphB1 Inhibition Percent, Inhibition of Association-Dissociation ([2]; at 3.2 μM and 580 seconds, immobilized human EphrinB2, 25 nM soluble human EphB1): 44.5%
- EphB2 Inhibition Percent, Inhibition of Association ONLY ([3]; at 3.2 μM and 80 seconds, immobilized human EphrinB2, 25 nM soluble human EphB2): 39.4%
- EphB2 Inhibition Percent, Inhibition of Association-Dissociation ([3]; at 3.2 μM and 580 seconds, immobilized human EphrinB2, 25 nM soluble human EphB2): 60.2%
- EphB4 Inhibition Percent, Inhibition of Association ONLY ([4]; at 3.2 μM and 80 seconds, immobilized human EphrinB2, 25 nM soluble human EphB4): 19.8%
- EphB4 Inhibition Percent, Inhibition of Association-Dissociation ([4]; at 3.2 μM and 580 seconds, immobilized human EphrinB2, 25 nM soluble human EphB4): 33.2%
